Earlier results as cited in US11655474B2, “Suppression of pathological angiogenesis by inhibition of NR2F6” (Regen Biopharma, Inc., priority 2019, dated 2023).

Key:
human microvascular ECs = human microvascular ECs cultured in tumor-conditioned medium
[1] = subset that received paclitaxel with the antibody

Molecule | HR, overall survival (ovarian cancer patients; bevacizumab plus chemotherapy compared with chemotherapy alone, 95 percent CI: 0.69, 1.14) | median progression free survival (PFS) (ovarian cancer patients; bevacizumab plus chemotherapy, ovarian cancer patients, chemotherapy alone 3.4 months) [months] | median overall survival (OS) (ovarian cancer patients; bevacizumab plus chemotherapy, chemotherapy alone 13.3 months) [months] | improvement in median OS (ovarian cancer patients; [1]) [month] | improvement in median PFS (ovarian cancer patients; [1]) [month] | HR, PFS (ovarian cancer patients; subset that received paclitaxel with the antibody, 95 percent CI: 0.31, 0.72) | HR, OS (ovarian cancer patients; subset that received paclitaxel with the antibody, 95 percent CI: 0.41, 1.01) | median PFS (ovarian cancer patients; subset that received paclitaxel with the antibody, versus 3.9 months) [months] | median OS (ovarian cancer patients; subset that received paclitaxel with the antibody, versus 13.2 months) [months] | objective response rate (ovarian cancer patients; subset that received paclitaxel with the antibody, versus 30 percent) [%] | tumor CM-induced MDR1 up-regulation (human microvascular ECs)
bevacizumab: antibody which binds VEGF | 0.89 | 6.8 | 16.6 | 9.2 | 5.7 | 0.47 | 0.64 | 9.6 | 22.4 | 53 | –
COc1cc2nccc(Oc3ccc(NC(=O)Nc4ccc(F)cc4F)c(F)c3)c2cc1OC [Ki8751] | – | – | – | – | – | – | – | – | – | – | blocked
